According to the NIST ThermoML archive (doi:10.1016/j.jct.2004.01.003):

Experiment: mn = molality of the nth substance listed, in mol/kg
Conditions: 350 kPa, Liquid

O=[N+]([O-])[O-].O=[N+]([O-])[O-].[Ba+2] [barium dinitrate] + O
apparent molar volume [m3/mol]
Conditions	m1 = 0.02026	m1 = 0.0208	m1 = 0.03085	m1 = 0.0401	m1 = 0.05028	m1 = 0.07046	m1 = 0.1005	m1 = 0.1931
278.15 K	3.67e-05	3.55e-05	3.91e-05	3.99e-05	3.81e-05	4.19e-05	4.18e-05	4.43e-05
283.15 K	3.99e-05	3.77e-05	4.13e-05	4.27e-05	4.16e-05	4.41e-05	4.44e-05	4.63e-05
288.15 K	4.18e-05	4.07e-05	4.28e-05	4.4e-05	4.39e-05	4.53e-05	4.59e-05	4.77e-05
298.15 K	4.32e-05	4.44e-05	4.64e-05	4.8e-05	4.82e-05	4.84e-05	4.9e-05	5.08e-05
308.15 K	4.53e-05	4.61e-05	4.89e-05	5.05e-05	5.07e-05	5.07e-05	5.12e-05	5.3e-05
318.15 K	4.89e-05	4.77e-05	4.97e-05	5.24e-05	5.25e-05	5.26e-05	5.27e-05	5.48e-05
328.15 K	5.14e-05	5.01e-05	5.17e-05	5.39e-05	5.38e-05	5.39e-05	5.38e-05	5.57e-05
338.15 K	5.31e-05	5.15e-05	5.29e-05	5.46e-05	5.43e-05	5.46e-05	5.47e-05	5.66e-05
348.15 K	5.4e-05	5.21e-05	5.35e-05	5.52e-05	5.49e-05	5.51e-05	5.52e-05	5.71e-05
358.15 K	5.5e-05	5.21e-05	5.38e-05	5.49e-05	5.53e-05	5.51e-05	5.54e-05	5.73e-05
368.15 K	4.76e-05	5.17e-05	5.39e-05	5.44e-05	5.5e-05	5.46e-05	5.5e-05	5.71e-05
